Where two headings read alike, the source gives them in different places.
Columns and labels:
[1] = system: SMN protein in SMA patient fibroblast cells (GM03813); experiment: SMN protein assay (HTRF) in cultured cells; format: cell-based; settings: Homo sapiens, SMA Type 1 patient fibroblasts, 48 hours; for EC (1.5-fold): concentration producing 1.5 times SMN protein vs vehicle, read-out: EC1.5x SMN protein; for maximal fold induction: relative to vehicle control, read-out: max. fold increase of SMN protein
Description: The SMN HTRF (homogeneous time resolved fluorescence) assay is used to quantify the level of SMN protein in SMA patient fibroblast cells treated with test compounds. Materials used and respective sources are listed below in Table 4.
Cells are thawed and cultured in DMEM-10% FBS for 72 hours. Cells are trypsinized, counted and re-suspended to a concentration of 25,000 cells/mL in DMEM-10% FBS. The cell suspensions are plated at 5,000 cells per well in a 96 well microtiter plate and incubated for […]. […] 1 μL of test compound solution is transferred to cell-containing wells and cells are incubated for 48 hours in a cell culture incubator (37° C., 5% CO2, 100% relative humidity). Triplicate samples are set up for each test compound concentration. After 48 hours, the supernatant is removed from the wells and 25 μL of the RIPA lysis buffer, containing protease inhibitors, is added to the wells and incubated with shaking at room temperature for 1 hour. 25 μL of the diluent is added and then 35 μL of the resulting lysate is transferred to a 384-well plate, where each well contains 5 μL of the antibody solution (1:100 dilution of anti-SMN d2 and anti-SMN cryptate in SMN reconstitution buffer). The plate is centrifuged for 1 minute to bring the solution to the bottom of the wells, then incubated overnight at room temperature. Fluorescence for each well of the plate at 665 nm and 620 nm is measured on an EnVision multilabel plate reader (Perkin-Elmer).
The normalized fluorescence signal is calculated for each sample, Blank and vehicle control well by dividing the signal at 665 nm by the signal at 620 nm. Normalizing the signal accounts for possible fluorescence quenching due to the matrix effect of the lysate. The ΔF value (a measurement of SMN protein abundance as a percent value) for each sample well is calculated by subtracting the normalized average fluorescence for the Blank control wells from the normalized fluorescence for each sample well, then dividing this difference by the normalized average fluorescence for the Blank control wells and multiplying the resulting value by 100. The ΔF value for each sample well represents the SMN protein abundance from test compound-treated samples. The ΔF value for each sample well is divided by the ΔF value for the vehicle control wells to calculate the fold increase in SMN protein abundance relative to the vehicle control. Table 5 provides EC1-5× concentrations for SMN protein expression that was obtained from the 7-point concentration data generated according to the above procedure for particular compounds of the present invention.
Table 6 provides the maximum fold increase of SMN protein that was obtained from the 7-point concentration data generated according to the above procedure for particular compounds of the present invention

[2] = system: full length SMN2 minigene mRNA (HEK293H cells stably transfected with SMN2-A minigene); experiment: RT-qPCR assay for SMN2 minigene pre-mRNA splicing in cultured cells; format: cell-based; settings: Homo sapiens, HEK293-H, 24 hours
[3] = Table 3 (title: production of full length SMN2 minigene mRNA), read-out: EC1.5x SMN protein
[4] = concentration increasing full length SMN2 minigene mRNA 1.5-fold vs vehicle, read-out: EC1.5x minigene

Structure (SMILES)	EC (1.5-fold) [1]	maximal fold induction [1]	EC (1.5-fold) [2, 3]	EC (1.5-fold) [2, 4]
Cc1nc2ccc(-c3cc(=O)n4cc(N5C[C@H](C)N[C@@H](C)C5)ccc4n3)nn2n1 [Example 42, 7-[(3S,5S)-3,5-dimethylpiperazin-1-yl]-2-(2-methyl-[1,2,4]triazolo[1,5-b]pyridazin-6-yl)pyrido[1,2-a]pyrimidin-4-one]	0.0629 µM	1.81	0.0083 µM	
Cc1nc2ccc(-c3cc(=O)n4cc(N5CCN(C)CC5)cc(C)c4n3)nn2n1 [Example 27, 9-methyl-7-(4-methylpiperazin-1-yl)-2-(2-methyl-[1,2,4]triazolo[1,5-b]pyridazin-6-yl)pyrido[1,2-a]pyrimidin-4-one]	0.0347 µM	1.74	0.014 µM	
Cc1nc2ccc(-c3cc(=O)n4cc(N5CC6CN(C)CC6C5)ccc4n3)nn2n1 (stereo not drawn) [Example 33, 7-(2-methyl-1,3,3a,4,6,6a-hexahydropyrrolo[3,4-c]pyrrol-5-yl)-2-(2-methyl-[1,2,4]triazolo[1,5-b]pyridazin-6-yl)pyrido[1,2-a]pyrimidin-4-one]	0.0151 µM	1.67	0.0038 µM	
Cc1nc2ccc(-c3cc(=O)n4cc(N5CCN[C@H](C)C5)cc(C)c4n3)nn2n1 [Example 40, 9-methyl-7-[(3R)-3-methylpiperazin-1-yl]-2-(2-methyl-[1,2,4]triazolo[1,5-b]pyridazin-6-yl)pyrido[1,2-a]pyrimidin-4-one]	0.0148 µM	2.08	0.0088 µM	
Cc1nc2ncc(-c3cc(=O)n4cc(N5CC6(CN(C)C6)C5)ccc4n3)cn2n1 [Example 21, 7-(6-methyl-2,6-diazaspiro[3.3]heptan-2-yl)-2-(2-methyl-[1,2,4]triazolo[1,5-a]pyrimidin-6-yl)pyrido[1,2-a]pyrimidin-4-one]	0.56 µM	1.6	0.145 µM	
Cc1nc2ccc(-c3cc(=O)n4cc(N5C[C@@H](C)N[C@@H](C)C5)ccc4n3)nn2n1 [Example 22, 7-[(3R,5S)-3,5-dimethylpiperazin-1-yl]-2-(2-methyl-[1,2,4]triazolo[1,5-b]pyridazin-6-yl)pyrido[1,2-a]pyrimidin-4-one]	0.228 µM	1.76	0.0434 µM	
Cc1nc2ncc(-c3cc(=O)n4cc(N5CC6(CNC6)C5)ccc4n3)cn2n1 [Example 7, 7-(2,6-diazaspiro[3.3]heptan-2-yl)-2-(2-methyl-[1,2,4]triazolo[1,5-a]pyrimidin-6-yl)pyrido[1,2-a]pyrimidin-4-one]	0.247 µM	1.78		0.107 µM
Cc1nc2ccc(-c3cc(=O)n4cc(N5CCN[C@@H](C)C5)ccc4n3)nn2n1 [Example 18, 7-[(3S)-3-methylpiperazin-1-yl]-2-(2-methyl-[1,2,4]triazolo[1,5-b]pyridazin-6-yl)pyrido[1,2-a]pyrimidin-4-one]	0.0515 µM	1.72	0.0176 µM	
Cc1nc2ncc(-c3cc(=O)n4cc(N5CCN(C)CC5)ccc4n3)cn2n1 [Example 23, 7-(4-methylpiperazin-1-yl)-2-(2-methyl-[1,2,4]triazolo[1,5-a]pyrimidin-6-yl)pyrido[1,2-a]pyrimidin-4-one]	0.477 µM	1.68	0.0952 µM	
Cc1nc2ccc(-c3cc(=O)n4cc(N5C[C@@H]6C[C@H]7CNC[C@]76C5)ccc4n3)nn2n1 [Example 47, 7-((3aR,4aR,7aS)-hexahydro-1H-cyclobuta[1,2-c:1,4-c′]dipyrrol-2(3H)-yl)-2-(2-methyl-[1,2,4]triazolo[1,5-b]pyridazin-6-yl)-4H-pyrido[1,2-a]pyrimidin-4-one]	0.0249 µM	1.87	0.0041 µM	
Cc1nc2ncc(-c3cc(=O)n4cc(N5CC6CN(C)CC6C5)ccc4n3)cn2n1 (stereo not drawn) [Example 8]	0.313 µM	1.85		0.0659 µM
Cc1nc2ncc(-c3cc(=O)n4cc(N5CCNC(C)(C)C5)ccc4n3)cn2n1 [Example 6, 7-(3,3-dimethylpiperazin-1-yl)-2-(2-methyl-[1,2,4]triazolo[1,5-a]pyrimidin-6-yl)pyrido[1,2-a]pyrimidin-4-one]	2.15 µM	1.7		0.201 µM
Cc1nc2ccc(-c3cc(=O)n4cc(N5CCNCC5)cc(C)c4n3)nn2n1 [Example 15, 9-methyl-7-piperazin-1-yl-2-(2-methyl-[1,2,4]triazolo[1,5-b]pyridazin-6-yl)pyrido[1,2-a]pyrimidin-4-one]	< 0.03 µM	1.82		< 0.03 µM
Cc1nc2ncc(-c3cc(=O)n4cc(N5CCN(C6COC6)CC5)ccc4n3)cn2n1 [Example 14, 7-[4-(oxetan-3-yl)piperazin-1-yl]2-(2-methyl-[1,2,4]triazolo[1,5-a]pyrimidin-6-yl)pyrido[1,2-a]pyrimidin-4-one]	> 31.6 µM	1.35		26.2 µM
Cc1nc2ccc(-c3cc(=O)n4cc(N5CCCN(C)CC5)cc(C)c4n3)nn2n1 [Example 25, 9-methyl-7-(4-methyl-1,4-diazepan-1-yl)-2-(2-methyl-[1,2,4]triazolo[1,5-b]pyridazin-6-yl)pyrido[1,2-a]pyrimidin-4-one]	0.226 µM	1.89	0.0103 µM	
Cc1nc2ccc(-c3cc(=O)n4cc(N5CCCN(C)CC5)ccc4n3)nn2n1 [Example 20, 7-(4-methyl-1,4-diazepan-1-yl)-2-(2-methyl-[1,2,4]triazolo[1,5-b]pyridazin-6-yl)pyrido[1,2-a]pyrimidin-4-one]	0.12 µM	1.77	0.0418 µM	
CCN1CCN(c2cc(C)c3nc(-c4ccc5nc(C)nn5n4)cc(=O)n3c2)CC1 [Example 32, 7-(4-ethylpiperazin-1-yl)-9-methyl-2-(2-methyl-[1,2,4]triazolo[1,5-b]pyridazin-6-yl)pyrido[1,2-a]pyrimidin-4-one]	0.0725 µM	1.97	0.0038 µM	
Cc1nc2ncc(-c3cc(=O)n4cc(N5CCC(CN6CCCC6)CC5)ccc4n3)cn2n1 [Example 12, 7-[4-(pyrrolidin-1-ylmethyl)-1-piperidyl]-2-(2-methyl-[1,2,4]triazolo[1,5-a]pyrimidin-6-yl)-pyrido[1,2-a]pyrimidin-4-one]	> 31.6 µM	1.36		0.161 µM
CCN1CCN(c2ccc3nc(-c4ccc5nc(C)nn5n4)cc(=O)n3c2)CC1 [Example 43, 7-(4-ethylpiperazin-1-yl)-2-(2-methyl-[1,2,4]triazolo[1,5-b]pyridazin-6-yl)pyrido[1,2-a]pyrimidin-4-one]	0.0562 µM	2.02	0.0328 µM	
Cc1nc2ccc(-c3cc(=O)n4cc(N5CC6(CCNCC6)C5)cc(C)c4n3)nn2n1 [Example 35, 7-(2,7-diazaspiro[3.5]nonan-2-yl)-9-methyl-2-(2-methyl-[1,2,4]triazolo[1,5-b]pyridazin-6-yl)pyrido[1,2-a]pyrimidin-4-one]	0.0082 µM	1.9	0.0022 µM	
Cc1nc2ccc(-c3cc(=O)n4cc(N5C[C@H](C)N[C@@H](C)C5)cc(C)c4n3)nn2n1 [Example 37, 7-[(3S,5S)-3,5-dimethylpiperazin-1-yl]-9-methyl-2-(2-methyl-[1,2,4]triazolo[1,5-b]pyridazin-6-yl)pyrido[1,2-a]pyrimidin-4-one]	0.0337 µM	1.78	0.0026 µM	
Cc1nc2ccc(-c3cc(=O)n4cc(N5CCNC(C)(C)C5)cc(C)c4n3)nn2n1 [Example 28, 7-(3,3-dimethylpiperazin-1-yl)-9-methyl-2-(2-methyl-[1,2,4]triazolo[1,5-b]pyridazin-6-yl)pyrido[1,2-a]pyrimidin-4-one]	0.0353 µM	1.79	0.0096 µM	
